Test results as given in patent US8778947B2 (Intermune, Inc., priority 2012, dated 2014).
Entries after “also recorded” stand apart in the source; their conditions may differ. Where two headings read alike, the source gives them in different places. One block for each compound: values may come before it.

How the values were obtained:
[1] = Ciprofloxacin-pirfenidone in vitro-in vivo extrapolation (IVIVE) simulations of pirfenidone AUC change; conditions: from in vitro and in vivo data coupled with IVIVE simulations
From the text: In brief, the process involves combining in vitro knowledge regarding the properties of a potential inhibitor [IC50 values for various cytochrome P450 (CYP) enzymes] with the in vitro knowledge regarding the pathways of metabolism of a given substrate (fraction metabolized by various CYP enzymes).

[2] = Phase 1 open-label crossover study: safety (adverse events); format: in vivo, human (healthy subjects)
From the text: The Safety population was defined as subjects who received any amount of pirfenidone or ciprofloxacin.

[3] = biological target: CYP1A2 (Homo sapiens, UniProt P05177); conditions: in vitro experiments; cited from earlier work
Chain of CYP1A2 (P05177 whole entry): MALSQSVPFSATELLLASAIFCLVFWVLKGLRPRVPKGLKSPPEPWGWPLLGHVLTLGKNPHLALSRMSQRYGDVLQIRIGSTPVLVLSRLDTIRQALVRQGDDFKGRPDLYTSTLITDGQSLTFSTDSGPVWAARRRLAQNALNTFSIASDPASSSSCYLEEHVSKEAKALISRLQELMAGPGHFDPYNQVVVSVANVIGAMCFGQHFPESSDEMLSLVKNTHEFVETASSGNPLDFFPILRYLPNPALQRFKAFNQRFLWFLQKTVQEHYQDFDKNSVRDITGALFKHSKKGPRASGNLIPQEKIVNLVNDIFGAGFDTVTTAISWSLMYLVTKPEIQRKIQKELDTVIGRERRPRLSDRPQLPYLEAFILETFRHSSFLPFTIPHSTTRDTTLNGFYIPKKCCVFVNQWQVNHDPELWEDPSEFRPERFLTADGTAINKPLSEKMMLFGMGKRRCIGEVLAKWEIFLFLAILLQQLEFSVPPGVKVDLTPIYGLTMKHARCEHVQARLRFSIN

[4] = clinical; conditions: human, in vivo, po; for AUC(0-inf): AUC0-∞
Experimental: 750-mg tablets orally, as follows: • Day 2: 750 mg in the evening • Days 3-6: 750 mg twice a day (BID) • Day 7: 750 mg in the morning.
Both noncompartmental methods and a previously derived population PK (i.e., compartmental) model were used to analyze the plasma concentration-time data and characterize individual subject PK parameters.

[5] = cited from earlier work
[6] = Ratio of Day 6/7 (during ciprofloxacin dosing) to Day 1/2 (pre-ciprofloxacin dosing), N = 27
[7] = plasma, single 801 mg oral pirfenidone with food, Study Day 1/2 (Pre-Ciprofloxacin), N = 27
[8] = plasma, single 801 mg oral pirfenidone with food, Study Day 6/7 (During Ciprofloxacin 750 mg BID), N = 27

share of in vivo metabolism of pirfenidone for which CYP1A2 is responsible [1]: 70-80%
AUC(0-inf) ([4]; 801 mg, Geometric Mean): 50800 ng·h/mL
AUC(0-inf) ([4]; 801 mg, Mean (SD)): 51900 ng·h/mL
AUC(0-inf) ([4]; 801 mg, Median): 53200 ng·h/mL
Cmax ([4]; 801 mg, Geometric Mean): 10700 ng/mL
Cmax ([4]; 801 mg, Mean (SD)): 10400 ng/mL
Cmax ([4]; 801 mg, Median): 10400 ng/mL
half-life ([4]; 801 mg, T1/2 (apparent terminal elimination half-life), Geometric Mean): 2.4 h
half-life ([4]; 801 mg, T1/2, Mean (SD)): 2.5 h
Tmax ([4]; 801 mg, Geometric Mean): 2.2 h
Tmax ([4]; 801 mg, Mean (SD)): 2.2 h
Tmax ([4]; 801 mg, Median): 2 h
half-life ([4]; T1/2 (apparent terminal elimination half-life), Geometric Mean): 4.1 h
half-life ([4]; T1/2, Mean (SD)): 4 h
half-life ([4]; T1/2, Median): 4 h
Tmax ([4]; Geometric Mean): 2.3 h
Tmax ([4]; Mean (SD)): 2.6 h
Tmax ([4]; Median): 2 h
T1/2, Min, Max (human, in vivo, po): 2.8, 5.6
Tmax, Min, Max (human, in vivo, po): 1, 4.1
AUC0-∞, Min, Max (human, in vivo, po, 801 mg): 30, 88.2
Cmax, Min, Max (human, in vivo, po, 801 mg): 6.6, 14.4
T1/2, Min, Max (human, in vivo, po, 801 mg): 1.4, 3.6
Tmax, Min, Max (human, in vivo, po, 801 mg): 1, 3
SMILES: Cc1ccc(=O)n(-c2ccccc2)c1 [Pirfenidone, 5-methyl-1-phenyl-2-(1H)-pyridone]
subjects whose strongest AE relationship was probably related to pirfenidone ([2]; as assessed by the investigator): 6 subjects
subjects with pirfenidone-related AEs only on Day 6 ([2]; coadministration with ciprofloxacin): 5 subjects
subjects with AEs considered related to pirfenidone on Day 1 ([2]; dosing with pirfenidone only): One
CYP isoform metabolizing pirfenidone in vitro [3]: primarily metabolized by CYP1A2; also recorded: predominantly carried out by CYP1A2

AUC0-∞ Geometric Mean Ratio (90% Confidence Interval) [6]: 0.96 (0.92, 1.00)
Cmax Geometric Mean Ratio (90% Confidence Interval) [6]: 0.62 (0.57, 0.66)
AUC0-∞ Day 6/7 geometric mean lower than on Day 1/2 (after 801 mg pirfenidone): 7.7%
Cmax lower with ciprofloxacin coadministration on Day 6/7 than Day 1/2 (after 801 mg pirfenidone): 40%
AUC0-∞, Geometric Mean [7]: 32600 ng·h/mL
AUC0-∞, Mean (SD) [7]: 30.9 (4.74) μg*hr/mL
AUC0-∞, Median [7]: 30300 ng·h/mL
Cmax, Geometric Mean [7]: 6500 ng/mL
Cmax, Mean (SD) [7]: 6.1 (1.44) μg/mL
Cmax, Median [7]: 5700 ng/mL
T1/2 (apparent terminal elimination half-life), Geometric Mean [7]: 2.6 h
T1/2, Mean (SD) [7]: 2.7 (0.73) h
Tmax, Geometric Mean [7]: 2.2 h
Tmax, Mean (SD) [7]: 2.3 (0.6) h
Tmax, Median [7]: 2 h
AUC0-∞, Geometric Mean [8]: 30100 ng·h/mL
AUC0-∞, Mean (SD) [8]: 29.6 (4.52) μg*hr/mL
AUC0-∞, Median [8]: 29100 ng·h/mL
Cmax, Geometric Mean [8]: 3800 ng/mL
Cmax, Mean (SD) [8]: 3.8 (0.8) μg/mL
Cmax, Median [8]: 3800 ng/mL
T1/2 (apparent terminal elimination half-life), Geometric Mean [8]: 4 h
T1/2, Mean (SD) [8]: 4.2 (0.93) h
T1/2, Median [8]: 4 h
Tmax, Geometric Mean [8]: 2.1 h
Tmax, Mean (SD) [8]: 2 (0.76) h
Tmax, Median [8]: 2 h
T1/2 (apparent terminal elimination half-life), Geometric Mean (plasma, single 801 mg oral pirfenidone with food, Study Day 6/7 (During Ciprofloxacin 750 mg BID), N = 27, listed as 5-carboxy-pirfenidone): 4.0 h
SMILES: O=C(O)c1ccc(=O)n(-c2ccccc2)c1 [5-Carboxy-Pirfenidone, 5-carboxy-pirfenidone]

SMILES: O=C(O)c1cn(C2CC2)c2cc(N3CCNCC3)c(F)cc2c1=O [Ciprofloxacin, 1-cyclopropyl-6-fluoro-1,4-dihydro-4-oxo-7-(1-piperazinyl)-3-quinolinecarboxylic acid]
[I]in, u (free-drug concentration of the inhibitor entering the liver) ([5]; Ciprofloxacin 250 mg BID): 52
[I]in, u (free-drug concentration of the inhibitor entering the liver) ([5]; Ciprofloxacin 500 mg BID): 52
[I]in, u (free-drug concentration of the inhibitor entering the liver) ([5]; ciprofloxacin 750 mg BID): 78
